# According to patent US8012944B2, “Method for treating cancer using IAP antisense oligomer and chemotherapeutic agent” (Pharmascience Inc., priority 2003, dated 2011):
# Oligonucleotides are written 5' to 3', each unit as a sugar letter and its base; * is a phosphorothioate linkage, no mark a phosphodiester; rarer units and linkages stand in square brackets, end groups in braces. Plain capitals give the bases only. d = 2'-deoxy (DNA)
# Key:
# pro-caspase-3, PARP = test: Pro-caspase-3 and PARP protein in H460 cells (western blot); type: cell-based, human; conditions: 1.2 μM
# Method: (§1) One day prior to transfection, H460 cells were plated in 6- or 96-well tissue culture plates. Phosphorothioate antisense oligonucleotides were delivered into cells with Lipofectamine 2000 (Life Technologies) in the form of liposome-oligonucleotide complexes. Following a 4.5 or 6 h transfection, the transfection medium was replaced with RPMI medium containing 10% FBS, and the cells incubated for another 24 or 48 h.
# (§2) The cells or tumor tissue samples were lysed with ice-cold lysis buffer (50 mM Tris, 150 mM NaCl, 2.5 mM EDTA, 0.1% SDS, 0.5% sodium deoxycholate, 1% NP-40, 0.02% sodium azide) containing protease inhibitors (Complete-Mini protease inhibitor tablets; Boehringer Mannheim GmBH, Mannheim, Germany). After incubation for 30 min on ice, samples were centrifuged at 10,000 rpm for 15 min, and stored at −20° C. Protein content in the lysed extracts was determined using a detergent-compatible Bio-Rad assay (Bio-Rad Labs, Hercules, Calif.). Equal amounts of protein (40 μg/lane) were separated on 12% SDS-polyacrylamide gels or 4-15% gradient SDS-polyacrylamide pre-made gels (Bio-Rad) and transferred to nitrocellulose membranes. Primary antibodies against XIAP, Bcl-2 (DAKO, Glostrup, Denmark), Bax (Sigma, St. Louis, Mo.), β-actin (Sigma), caspase-3 (BD PharMingen, San Diego, Calif.), and PARP (BD PharMingen) were used. The secondary antibody was the appropriate horseradish-conjugated anti-mouse or anti-rabbit IgG (Promega, Madison, Wis.). Proteins were detected by enhanced chemiluminescence (ECL; Amersham Pharmacia Biotech, Buckinghamshire, England) and visualized after exposure to Kodak autoradiography film. Scanning densitometry (Molecular Dynamics, Sunnyvale, Calif.) was performed to quantify band intensities by volume/area integration. The amount of XIAP, caspase-3, Bcl-2 and Bax in cells was normalized to their respective lane β-actin levels, upon stripping and reprobing.
# XIAP protein [1] = test: XIAP protein knock-down in H460 cells (western blot, densitometry); type: cell-based, human
# Method: FIGS. 3 and 4 are graphs showing the effects of 4×4 mixed backbone (MBO) FG8 or E12 oligonucleotides in amounts of 31 nM (FIG. 3) or 63 nM (FIG. 4). H460 lung carcinoma cells were transfected for 18 hours on one, two, or three consecutive days using 125 nM MBOs and Lipofectamine 2000. Samples for western analysis were harvested at the indicated time. Scanning densitometry was performed, and XIAP protein levels were normalized to GAPDH and compared to a mock control set to 100%. The indicated percentages express % XIAP protein knockdown versus specific scrambled controls.
# as §1, §2
# [2] = test system: MDA-MB-435/LCC6 human breast carcinoma xenografts; test: Systemic (i.p.) PS-oligonucleotides in LCC6 breast carcinoma xenografts; type: in vivo, female SCID-RAG2 mice; conditions: 12.5 mg/kg i.p.; day 35, two weeks after the last treatment
# Method: (§3) Initial systemic PS-oligonucleotide studies were designed without any chemotherapeutic agents. SCID-RAG2 mice were inoculated with H460 human lung carcinoma cells (s.c. shoulder injection of 10^6 cells) and treatments with G4 and F3 AS PS-oligonucleotides, as well as a scrambled control, were initiated three days after tumor inoculation. Nucleobase oligomer injections were administered i.p. at 12.5 mg/kg three times a week for three weeks. At the end of the treatment period, mean tumor sizes in the groups treated with either G4 or F3 AS oligonucleotides were ˜50% smaller than in the group treated with a scrambled control oligonucleotides (FIG. 15). The same treatment protocol was tested on female SCID-RAG2 mice inoculated orthotopically with MDA-MB-435/LCC6 human breast carcinoma cells. Two weeks after the last treatment (day 35) tumor volumes of mice treated with F3, C5 or G4 AS oligonucleotides were 70%, 60%, and 45%, respectively, smaller than vehicle controls (FIG. 16).
# (§4) Efficacy experiments were conducted in male RAG2 immunodeficient mice bearing NCI-H460 tumours or female RAG2 mice bearing LCC6 tumors. Treatments were commenced on day 3 after tumor inoculation. Saline (controls), G4 AS oligonucleotides (5 or 15 mg/kg), or G4 SC oligonucleotides (5 or 15 mg/kg) were administered i.p. daily for five doses a week over a three week regimen. Vinorelbine (VNB, 5 or 10 mg/kg) was administered i.v. via the tail vein, either alone or in combination with oligonucleotides, at day 3, 7, 11 and 17 after tumor inoculation. When oligonucleotides were administered in combination with VNB, the drug treatment was performed four hours after ODN treatment.
# Bcl-2 and Bax = test: Bcl-2:Bax ratio in H460 cells (western blot); type: cell-based, human; conditions: 1.2 μM
# Method: FIGS. 11A and 11B are schematic illustrations showing XIAP oligonucleotide-mediated effects on caspase activation. The effect of XIAP oligonucleotides F3, G4, or C5, or their respective RP and SC ODN controls at 1.2 μM on the expression of pro-caspase-3, PARP (both full length (116 kDa) and processed (85 kDa)) (FIG. 10A) and Bcl-2 and Bax protein levels (FIG. 10B) in transfected H460 cells compared to control is shown. Proteins expression was analyzed by western blotting. Bcl-2 and Bax protein levels were normalized to cellular actin levels and quantified by densitometry. […]
# The cells or tumor tissue samples were lysed with ice-cold lysis buffer (50 mM Tris, 150 mM NaCl, 2.5 mM EDTA, 0.1% SDS, 0.5% sodium deoxycholate, 1% NP-40, 0.02% sodium azide) containing protease inhibitors (Complete-Mini protease inhibitor tablets; Boehringer Mannheim GmBH, Mannheim, Germany). […] Protein content in the lysed extracts was determined using a detergent-compatible Bio-Rad assay (Bio-Rad Labs, Hercules, Calif.). […] Proteins were detected by enhanced chemiluminescence (ECL; Amersham Pharmacia Biotech, Buckinghamshire, England) and visualized after exposure to Kodak autoradiography film. Scanning densitometry (Molecular Dynamics, Sunnyvale, Calif.) was performed to quantify band intensities by volume/area integration. […]
# [3] = test system: subcutaneous H460 human non-small-cell lung tumor xenografts; test: Systemic (i.p.) oligonucleotides with or without vinorelbine in H460 xenografts; type: in vivo, SCID-RAG2 mice; conditions: for antitumor efficacy on H460 xenografts (in words): systemic, oligonucleotide 15 mg/kg i.p., VNB 5 or 10 mg/kg i.v.
# Method: as §3
# We conducted additional examination of the antitumor effects of G4 AS oligonucleotides in SCID-RAG2 mice bearing xenografts of H460 human non-small-cell lung tumors implanted subcutaneously. Saline-treated control tumors grew reproducibly to a size of 0.75 cm^3 within approximately 24 days (FIG. 17). Oligonucleotide treatments were initiated three days after tumor cell inoculation. G4 AS oligonucleotides (5 to 15 mg/kg) were administered using a treatment schedule of i.p. injections given once a day on days 3-7, 10-14, and 17-21. The treatment with 5 or 15 mg/kg G4 AS oligonucleotides greatly delayed tumor growth: on day 24 mean tumor sizes were 0.75, 0.45 and 0.29 cm^3 in control, 5 and 15 mg/kg treated groups, respectively (FIG. 18A). There was a dose-dependent inhibition of tumor growth. […] A dose of 15 mg/kg was selected for the future combination treatment regimens with anticancer drugs.
# The human non-small cell lung cancer cell line (large cell type) NCI-H460 (H460) was obtained from ATCC and maintained in RPMI 1640 supplemented with 10% FCS at 37° C. in a humidified atmosphere containing 5% CO2. Cells were used in exponential growth phase, up to a maximum of 25 in vitro passages. Male SCID-RAG2 mice (7-9 weeks old, 23-26 g) were obtained from British Columbia Cancer Agency Joint Animal Facility breeding colony and kept in aseptic environments. A tumor model of NCI-H460 cells in SCID-RAG2 mice was established by subcutaneous implantation of 1×10^6 NCI-H460 cells on the back of mice.
# as §4
# (§5) Mice were observed daily. Body weight measurements and signs of stress (e.g., lethargy, ruffled coat, ataxia) were used to detect possible toxicities. Animals with ulcerated tumor, or tumor volumes of 1 cm^3 or greater were killed. Digital caliper measurements of tumors were converted into mean tumor size (cm^3) using the formula: ½[length (cm)]×[width (cm)]^2. An average tumor size per mouse was used to calculate the group mean tumor size±SE (n=6 mice) from at least two independent experiments per group.
# [4] = mouse, in vivo
# Source text: as §5
# T24 cells = test: Visual inspection of T24 cell morphology after transfection; type: cell-based, human; conditions: twenty hours after transfection
# Source text: The occurrence of cytoxicity induced by oligonucleotide E4 was examined by visually inspecting T24 cells that were left untreated, mock transfected, or transfected with E4, E4 scrambled, E4 reverse polarity, or E4 mismatched oligonucleotides. Twenty hours after transfection, the cells were examined for morphology (FIG. 5D).
# XIAP mRNA = XIAP mRNA knock-down in H460 cells (real-time RT-PCR / TaqMan); type: cell-based, human
# Method in brief: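 NCI-H460 cells transfected with phosphorothioate antisense oligonucleotides via Lipofectamine 2000; RNA isolated after 6 h treatment. XIAP mRNA quantified by one-step TaqMan real-time RT-PCR, comparative Ct (threshold 30× baseline SD), normalized to GAPDH and expressed relative to untreated control cells.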
# XIAP protein [5] = test: XIAP protein knock-down in T24 cells (XIAP ELISA, relative to total protein); type: cell-based, human
# Method in brief: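 T24 bladder carcinoma cells transfected with antisense oligonucleotides using Lipofectamine plus in serum-free, antibiotic-free McCoy's medium for three hours, then serum added. XIAP protein measured by colorimetric sandwich ELISA on day 4, normalized to total cellular protein and compared with mock transfection.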
# XIAP RNA = XIAP RNA knock-down in T24 cells (TaqMan quantitative PCR); type: cell-based, human
# Method in brief: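 T24 bladder carcinoma cells (1.5×10^4/well) cultured 24 h in antibiotic-free McCoy's medium, then transfected with antisense oligonucleotides using Lipofectamine-based conditions optimized on survivin knock-down. XIAP mRNA measured by TaqMan RT-qPCR, quantified relative to GAPDH by the comparative Ct method.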
# H460 cells [6] = test: H460 cell growth, viability or death (MTT assay); type: cell-based, human; conditions: 1.2 μM
# Method: Growth inhibition of […] cells was determined by the colorimetric MTT cell viability/proliferation assay. In brief, cells were treated with liposome-oligonucleotide complexes for 4.5 h, then incubated for another 48 h at 37° C. in medium without transfection reagent or oligonucleotides in the presence or absence of anticancer drugs. MTT (25 μg/well) was added to each well, and the plates incubated for 3 h at 37° C. Following the incubation step, the colored formazan product was dissolved by the addition of 200 μl DMSO. Plates were read using the microtiter plate reader (Dynex Technologies Inc., Chantilly, Va.) at a wavelength of 570 nm. The percentage of surviving cells in wells treated with oligonucleotides was normalized to untreated controls. All assays were performed in triplicate.
# H460 cells [7] = test: Nuclear morphology (DAPI staining); type: cell-based, human; conditions: 1.2 μM
# Method: Cells were treated with liposome-oligonucleotde complexes for 4.5 h, and incubated for another 48 h at 37° C. in the medium without transfection reagent or oligonucleotides. Cells were harvested and stained with 0.10 μg/ml DAP1 (4′, 6-diamidino-2-2-phenylindole) for 30 min at room temperature. Cells were placed on a glass slide, cytospun, and viewed with a Leica microscope and 40× objective lens under UV fluorescent illumination. Digital images were captured using Imagedatabase V. 4.01 Software (Leica, Germany).
# H460 cells [8] = test: Apoptotic flow cytometric assay (PI staining, hypo-diploid DNA content); type: cell-based, human; conditions: 1.2 μM, untreated control 16.6%
# Method: Cells were treated with liposome-oligonucleotide complexes for 4.5 h, and incubated for another 48 h in the medium without transfection reagent at 37° C. Following incubation, cells were harvested, washed twice with sample buffer (0.5% glucose in PBS without Ca^++ and Mg^++), and fixed in cold 70% ethanol at 4° C. for at least 18 hrs. Samples were centrifuged at 3000 rpm for 10 min, then resuspended in sample buffer containing 50 μg/ml propidium iodide (PI) and 400 U/ml RNase A. Samples were incubated for 30 min at room temperature and 30 min on ice, followed by flow cytometry analysis. EXPO Software (Applied Cytometry Systems, Sacramento, Calif.) was used to generate histograms, which were used to determine the cell cycle phase distribution after debris exclusion. The Sub G1/G0 cell fraction was considered as representative for apoptotic cells.
compound,measurement,setting,value
"ATCTTCTCTTGAAAATAGG (DNA, all phosphorothioate, methylation of C not given here) [F3 AS]",reduction of pro-caspase-3 protein levels compared to untreated control,"pro-caspase-3, PARP",40%
same,reduction of XIAP protein level,"XIAP protein [1]; 1.2 μM, 24 h after the end of transfection",50%
same,tumor volumes smaller than vehicle controls,[2],70%
same,ratio of Bcl-2:Bax,Bcl-2 and Bax,unchanged
same,mean tumor size smaller than scrambled control group,"[3]; PS-oligonucleotides 12.5 mg/kg i.p. three times a week for three weeks, end of treatment",~50%
"CCC1=C[C@@H]2CN(C1)Cc1c([nH]c3ccccc13)[C@@](C(=O)OC)(c1cc3c(cc1OC)N(C)[C@H]1[C@@](O)(C(=O)OC)[C@H](OC(C)=O)[C@]4(CC)C=CCN5CC[C@]31[C@@H]54)C2 [VNB, vinorelbine, reference compound]",signs of toxicity in mice,[4],without showing significant signs of undesirable toxicity
same,average tumor size,"[3]; day 29, VNB 5 mg/kg, oligonucleotides 15 mg/kg",0.59±0.04 cm^3
same,antitumor efficacy on H460 xenografts (in words),[3],significant tumor growth suppression
CGCACGGTATCTCCTTCAC (antisense; chemistry not fully specified) [Code E4],signs of toxicity (cell morphology),T24 cells,showed signs of toxicity
same,XIAP down-regulation H460 RNA,XIAP mRNA,51%
same,XIAP down-regulation T24 protein,XIAP protein [5],34%
same,"XIAP protein levels relative to total protein, compared to mock transfection (in words)",XIAP protein [5]; first screen of the library,some decrease
same,XIAP down-regulation T24 RNA,XIAP RNA,47%
"GGCTCTTTGCCCACTGAAT (dG*dG*dC*dT*dC*dT*dT*dT*dG*dC*dC*dC*dA*dC*dT*dG*dA*dA*dT) [G4 SC, reference compound]",effect on caspase-3 or PARP protein expression,"pro-caspase-3, PARP",did not have any effect
same,cell death,H460 cells [6]; H460 cells,less than 10%
same,reduction of H460 cell growth relative to untreated control,"H460 cells [6]; MTT, 48 hours after transfection",less than 10%
same,nuclear morphological changes characteristic of apoptosis,H460 cells [7],Few cells showed these morphological changes
same,hypo-diploid DNA content of cells,H460 cells [8],22.1%
same,effect on XIAP protein levels (in words),XIAP protein [1],little XIAP loss
same,"tumors reduced in size, % of control tumors","[3]; 15 mg/kg, day 21 or 24",24%
same,antitumor efficacy on H460 xenografts (in words),[3],no therapeutic activity
